# Values joined by “and” are separate entries in the source; they are usually repeats but may differ in a detail not shown here. Equal entries are not always repeated. Where two headings read alike, the source gives them in different places. Marks after values point to notes of the source that are not given here.
# Experiments:
# [1] = tested on: CYP2B1/2B2; assay: Western blot analysis of rat hepatic proteins after PB treatment; format: in vivo; design: key: Highly Induced: Not detected in control but strong band after PB treatment.; Moderately Induced: Not detected in control but bands with a medium intensity detected after PB treatment; settings: rat hepatic microsomal proteins, PB treated vs control
# Protocol: (§1) SDS-PAGE was carried out on 10% or 15% gels. The separated proteins were electroblotted onto cellulose membrane and Western blot analyses were carried out using horseradish peroxidase-system with electrochemiluminescent substrates.
# (§2) This microarray result was obtained by combining results from Control 1 and PB 1 assays and Control 2 and PB 2 assays. Expression levels of CYP2B1/2B2, CYP2B1, COX-2, CYP2D, CYP3A1/2/23, CYP2C11 and G3PDH in Rat #1 (Control 1), Rat #2 (PB 1), Rat #3 (Control 2) and Rat #4 (PB 2) were verified by Western blot analyses of microsomal and cytosolic proteins. Protein bands obtained by Western blot analyses were quantitated using a densitometer (Molecular Dynamics). […] COX-2 expression usually detected in microsomes also detected in cytosol. The cytosolic COX-2 levels were normalized by G3PDH levels.
# [2] = tested on: CYP3A; assay: as above; format: in vivo; settings: rat hepatic microsomal proteins, PB treated vs control; two sets; mean and difference from the mean
# Protocol: as §1, §2
# [3] = tested on: CYP2D; assay: as above; format: in vivo; settings: rat hepatic microsomal proteins, PB treated vs control; two sets; mean and difference from the mean
# Protocol: as §1, §2
# [4] = tested on: CYP3A (CYP3A1/2/23); settings: anti-serum spots, IgG concentration not given
# [5] = tested on: Alpha-actin; settings: rat hepatic proteins after PB treatment; 500 μg/ml IgG (ascites fluid); Flag internal control
# [6] = tested on: Tubulin-alpha; settings: rat hepatic proteins after PB treatment, 500 μg/ml IgG (ascites fluid), Flag internal control
# [7] = tested on: Tubulin-beta; settings: rat hepatic proteins after PB treatment; 500 μg/ml IgG; Flag internal control
structure (smiles),measurement,setting,value
CCC1(c2ccccc2)C(=O)NC(=O)NC1=O [phenobarbital],"fold-increase of protein expression level, Western Blot Analysis, CYP2B1/2B2",[1],Highly Induced^b
same,"fold-increase of protein expression level, Western Blot Analysis, CYP3A",[2],7.00 ± 4.80^d fold
same,"fold-increase of protein expression level, Western Blot Analysis, CYP2D",[3],failed to increase
same,"CYP3A expression after phenobarbital treatment, array analysis",[4],increased higher than two-fold
same,"Fold-Change of Protein Expression Level, Alpha-actin",[5],0.8 fold
same,"Fold-Change of Protein Expression Level, Tubulin-alpha",[6],1.7 fold and 1.7^a fold
same,"Fold-Change of Protein Expression Level, Tubulin-alpha",[6]; listed as PB,1.7 fold
same,"Fold-Change of Protein Expression Level, Tubulin-beta",[7],0.7 fold
